The record followed here is EP4407316A1, “PROTEASOMAL DEGRADATION OF PROTEINS” (Katholieke Universiteit Leuven, KU Leuven R&D, priority 2023, dated 2024).

The pIC50 is the negative decadic logarithm of the IC50, by convention in mol/L. As usually defined, the IC20 is the concentration needed for an effect of 20%. A high value points to weaker potency.

pIC50: −log10 of the molar value.

Test [1] addresses T1, XPO1 (Homo sapiens, UniProt O14980).
T1 construct: endogenous in cells
The test is described as follows: Western blot (Simple Western) monitoring XPO1 degradation in HAP1 cells. Particulars: for XPO1 degradation: overnight treatment. It is filed as cell-based. The text has this:
Figure 4. XPO1 protein degradation is regulated by ASB8. a-b Sensitization profile of HAP1 cells with either knockout or overexpression of ASB8 under selection with selinexor. Cell viability when transduced with a safe-targeting or ASB8 targeting sgRNA (a). Cell viability when transduced with a non-coding stuffer sequence or ASB8 coding sequence at two different multiplicities of infection (MOI) (b). After four days of treatment with compound at the indicated concentrations, cell viability was measured by MTS assay. Data were normalized to untreated cells and represent mean ±SD of three separate experiments performed in triplicate. IC50 values were compared with control using an extra sum-of-squares F-test. c-d Monitoring of XPOL degradation in HAP1 cells with western blot. Comparison of cells stably transduced with a safe-targeting versus ASB8 targeting sgRNA (c) or with a stuffer sequence versus ASB8 coding sequence (d). Cells were treated overnight with selinexor and bortezomib as indicated. Cells were harvested and total lysates were probed for XPO1 and TUBB (β-tubulin) protein levels. e Time-of-drug-addition assay in HAP1 cells harboring a stuffer or ASB8 coding sequence (MOI=0.2). Duration of treatment with selinexor is as indicated. For bortezomib, length of treatment was 24 h for all conditions. f Selinexor-induced degradation of XPO1 in HAP1 cells with an endogenous Cys528Ser mutation introduced by CRISPR-mediated homology-directed repair. Following stable transduction of XPOL wild-type and mutant cells with a stuffer or ASB8 coding sequence (MOI=0.2), cells were treated overnight with compound as indicated.
For the experiments monitoring XPO1 degradation, HAP1 cells were seeded in 6-well plates at 100,000 cells/mL. The next day, cells were treated with selinexor and/or bortezomib as indicated. The pan-caspase inhibitor Q-VD-OPh was added to all conditions at 10 µM final concentration to delay onset of apoptosis. Cells were treated with compound overnight or as indicated. Next, cells were harvested, washed with ice-cold PBS and lysed in RIPA buffer (Thermo Fisher Scientific) with 1× HALT Protease Inhibitor Cocktail (Thermo Fisher Scientific) on ice for 20 min. Cell debris was removed by centrifugation at 20.000 × g and 4 °C for 10 min and total protein content was quantified with the Pierce BCA Protein Assay kit (Thermo Fisher Scientific). We used an automated, capillary-based Simple Western size assay (Wes, ProteinSimple) to detect and quantify our proteins of interest. 5 µL of lysate at a final concentration of 200 µg/mL was loaded onto the assay plate. For detection, the following primary antibodies and dilutions were used: CRM1/XPO1 (NB100-79802, Novus, 1:1000), TUBB (NB600-936, Novus, 1:40) and FLAG (F4049, Sigma-Aldrich, 1:250). […]

The test system of test [2] is HAP1 cells. Nature of the test: Live cell count to establish selinexor IC values for CRISPR screening. The format is cell-based. The conditions noted are these: Homo sapiens, 96 h, live cells counted after four days and compared to untreated control flask. The text has this:
To detect gene loss-of-function events that modulate sensitivity to XPO1 inhibition, we conducted genome-wide CRISPR-Cas9 screens in cells under selection with selinexor. We selected HAP1 cells for our initial screen as this chronic myeloid leukemia cell line is a relevant model^66,67 and has suitable characteristics for CRISPR screening, including a high proliferation rate and transduction efficiency. HAP1 cells were transduced with the Brunello genome-wide CRISPR knockout library in the one-vector configuration, in which sgRNA and Cas9 are expressed from a single lentiviral construct. Cells were split into control (DMSO) and selinexor-treated arms, further divided into three replicates per arm and passaged in parallel for 24 days (Fig. 1a). Selinexor was used at a concentration of 100 nM, corresponding to the IC50, i.e., the concentration at which the live cell count in the treated arm was half of that in the control arm after […]. At each passage, cells were harvested and per arm, an equal number of cells was reseeded with fresh compound. […]
To establish IC values for screening, cells were seeded in 150-cm^2 flasks and treated with selinexor at different concentrations for four days after which live cells were counted and compared to an untreated control flask. […]

For test [3], the system named is DS cells. Described as above. It is filed as cell-based. The conditions noted are these: Homo sapiens, 96 h, live cells counted after four days and compared to untreated control flask. How it is done: (§1) To establish IC values for screening, cells were seeded in 150-cm^2 flasks and treated with selinexor at different concentrations for four days after which live cells were counted and compared to an untreated control flask. HAP1, KMS-28BM and SK-MM-1 cells were screened with the one-vector library encoding both sgRNA and Cas9 while for DS and RL cells, the two-vector library, which uses two separate vectors for the sgRNA and Cas9, was used. Cells were transduced at a MOI of approximately 0.25 and a coverage of >200-fold. Puromycin-selected cells were allowed to recover for 4-7 days after which selection with selinexor started. […] In addition, KMS-28BM were also screened at IC20, corresponding to a concentration of 40 nM. Finally, for every cell line, a no-drug condition was included (DMSO). For each condition, three parallel replicates containing at least 20 × 10^6 cells each were initiated after puromycin selection and maintained independently throughout screening and downstream processing. Cells were passaged every 2-4 days and cell pellets of 20 × 10^6 were collected at regular intervals. Screening continued for >20 cell doublings, more precisely until day 24, 42, 28, 28 and 25 for HAP1, KMS-28BM, SK-MM-1, DS and RL cells, respectively.

Test [4] deals with KMS-28BM cells. The test is described as above. It is filed as cell-based. Particulars: Homo sapiens, 96 h, live cells counted after four days and compared to untreated control flask. Here is the method: as §1
The test system of test [5] is RL cells. The test is described as above. It is filed as cell-based. Particulars: Homo sapiens, 96 h, live cells counted after four days and compared to untreated control flask. How it is done: as §1
Test [6] concerns SK-MM-1 cells. The test is described as above. The format is cell-based. The conditions noted are these: Homo sapiens, 96 h, live cells counted after four days and compared to untreated control flask. How it is done:
as §1

In test [7] the test system is ASB8 knockout and overexpressing cells. The test is described as follows: MTS cell viability assay in ASB8 knockout and ASB8 overexpressing cells. The format is cell-based, human. Particulars: HAP1 four days, KMS-28BM six days of treatment. The text has this:
(§2) Figure 4. XPO1 protein degradation is regulated by ASB8. a-b Sensitization profile of HAP1 cells with either knockout or overexpression of ASB8 under selection with selinexor. Cell viability when transduced with a safe-targeting or ASB8 targeting sgRNA (a). Cell viability when transduced with a non-coding stuffer sequence or ASB8 coding sequence at two different multiplicities of infection (MOI) (b). After four days of treatment with compound at the indicated concentrations, cell viability was measured by MTS assay. Data were normalized to untreated cells and represent mean ±SD of three separate experiments performed in triplicate. IC50 values were compared with control using an extra sum-of-squares F-test. c-d Monitoring of XPOL degradation in HAP1 cells with western blot. Comparison of cells stably transduced with a safe-targeting versus ASB8 targeting sgRNA (c) or with a stuffer sequence versus ASB8 coding sequence (d). Cells were treated overnight with selinexor and bortezomib as indicated. […]
(§3) Figure 10. a Viability of KMS-28BM cells stably transduced with a stuffer or ASB8 coding lentiviral vector and treated with different concentrations of selinexor. b-e Viability of ASB8 knockout and ASB8 overexpressing HAP1 cells treated with different concentrations of KPT-9274 (b, c) or ispinesib (d, e). f-g Viability of ASB8 overexpressing KMS-28BM cells treated with different concentrations of KPT-9274 (f) or ispinesib (g). After four days (HAP1) or six days (KMS-28BM) of treatment with compound at the indicated concentrations, cell viability was measured by MTS assay. […] IC50 values were compared with control using an extra sum-of-squares F-test. h Representative images of fluorescence microscopy imaging of subcellular ASB8 localization. […]
HAP1 cells were seeded in 96-well plates at 2500 cells/well in 100 µL medium. […] For each experiment, absorbance measurements of three replicate wells were averaged. […]
On the technique in general: Tetrazolium dyes change colour on reduction, which living cells bring about.

Test [8] has as its target T2, XPO1 Cys528Ser mutation (Homo sapiens, UniProt O14980, C528S).
T2 construct: HAP1 cells with an endogenous Cys528Ser mutation introduced by CRISPR-mediated homology-directed repair; endogenous in cells
Nature of the test: Western blot (Simple Western) monitoring XPO1 degradation in HAP1 XPO1 C528S mutant cells. Particulars: HAP1 cells with endogenous XPO1 Cys528Ser mutation; control and ASB8 overexpressing; overnight treatment. It is filed as cell-based.
From the text: as §2, with “(d).” for “(d). Cells were treated overnight with selinexor and bortezomib as indicated.”
For the experiments monitoring XPO1 degradation, HAP1 cells were seeded in 6-well plates at 100,000 cells/mL. […] Cell debris was removed by centrifugation at 20.000 × g and 4 °C for 10 min and total protein content was quantified with the Pierce BCA Protein Assay kit (Thermo Fisher Scientific). We used an automated, capillary-based Simple Western size assay (Wes, ProteinSimple) to detect and quantify our proteins of interest. […]

For test [9], the target named is T3, ASB8 interacts with XPO1 (Homo sapiens, UniProt O14980).
T3 construct: expressed in transfected cells; host or cells: HEK293T cells, transient transfection (TurboFectin 8.0)
T3 sequence (O14980 whole entry): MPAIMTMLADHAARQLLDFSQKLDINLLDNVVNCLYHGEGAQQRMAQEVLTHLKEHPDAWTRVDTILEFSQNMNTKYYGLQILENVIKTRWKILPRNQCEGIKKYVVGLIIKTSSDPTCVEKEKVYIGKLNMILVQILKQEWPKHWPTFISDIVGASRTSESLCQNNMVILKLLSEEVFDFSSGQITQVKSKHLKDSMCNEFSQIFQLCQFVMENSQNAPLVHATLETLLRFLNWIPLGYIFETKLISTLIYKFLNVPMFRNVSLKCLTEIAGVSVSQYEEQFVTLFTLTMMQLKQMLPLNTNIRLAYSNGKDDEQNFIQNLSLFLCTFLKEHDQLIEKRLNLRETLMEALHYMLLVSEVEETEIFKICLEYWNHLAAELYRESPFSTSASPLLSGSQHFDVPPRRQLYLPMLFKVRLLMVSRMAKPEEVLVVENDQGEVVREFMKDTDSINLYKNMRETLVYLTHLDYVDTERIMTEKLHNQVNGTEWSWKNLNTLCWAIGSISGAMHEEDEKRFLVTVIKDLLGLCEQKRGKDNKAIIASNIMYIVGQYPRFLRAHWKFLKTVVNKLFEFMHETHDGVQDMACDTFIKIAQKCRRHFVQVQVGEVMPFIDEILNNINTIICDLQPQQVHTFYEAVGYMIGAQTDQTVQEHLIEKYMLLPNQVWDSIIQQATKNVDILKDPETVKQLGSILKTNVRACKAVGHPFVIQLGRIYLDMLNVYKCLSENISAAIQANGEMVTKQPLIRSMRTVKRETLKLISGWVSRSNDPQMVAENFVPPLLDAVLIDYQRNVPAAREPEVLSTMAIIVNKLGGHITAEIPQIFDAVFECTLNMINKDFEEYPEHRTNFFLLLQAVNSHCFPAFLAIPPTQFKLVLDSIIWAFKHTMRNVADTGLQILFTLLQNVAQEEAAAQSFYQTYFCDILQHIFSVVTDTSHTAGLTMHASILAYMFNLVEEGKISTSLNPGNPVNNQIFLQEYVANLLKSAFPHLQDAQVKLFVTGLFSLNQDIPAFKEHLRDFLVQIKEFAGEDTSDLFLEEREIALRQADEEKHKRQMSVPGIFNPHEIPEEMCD
T3 sequence (Q9H765 whole entry partner): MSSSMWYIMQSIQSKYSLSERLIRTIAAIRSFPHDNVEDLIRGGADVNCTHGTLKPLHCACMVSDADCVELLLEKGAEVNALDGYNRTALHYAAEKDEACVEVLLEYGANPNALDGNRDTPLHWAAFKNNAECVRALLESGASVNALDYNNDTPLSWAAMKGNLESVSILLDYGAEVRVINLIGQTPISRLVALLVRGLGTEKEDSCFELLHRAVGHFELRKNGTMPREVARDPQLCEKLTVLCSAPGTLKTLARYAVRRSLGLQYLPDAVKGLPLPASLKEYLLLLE
Nature of the test: Co-immunoprecipitation of XPO1 with FLAG-ASB8 in HEK293T cells. The format is binding. Particulars: HEK293T cells co-transfected with XPO1 and FLAG-ASB8; 15 minutes treatment; higher concentrations. Here is the method: Figure 5. ASB8 interacts with XPO1. HEK293T cells were transiently transfected with XPO1 alone or together with either FLAG-ASB8 or FLAG-luc2 plasmids. After 24 hours, selinexor was added at the indicated concentrations and cells were incubated for 15 minutes. Next, cells were collected and incubated with lysis buffer for 20 minutes (whole-cell lysate, WCL). From these lysates, FLAG fusions were pulled down and co-immunoprecipitation of XPO1 was checked with western blot (IP: FLAG).
as §3
The protocol for lysis and co-immunoprecipitation was modified from an earlier report^64. […] After 15 min of incubation, cells were harvested and counted. […]

In test [10] the test system is ASB8. Nature of the test: Immunofluorescence staining of subcellular ASB8 localization in HAP1 cells. The format is cell-based, human. Particulars: stable FLAG-ASB8 expressing HAP1 cells; 200 nM overnight. The text has this:
Figure 10. a Viability of KMS-28BM cells stably transduced with a stuffer or ASB8 coding lentiviral vector and treated with different concentrations of selinexor. b-e Viability of ASB8 knockout and ASB8 overexpressing HAP1 cells treated with different concentrations of KPT-9274 (b, c) or ispinesib (d, e). f-g Viability of ASB8 overexpressing KMS-28BM cells treated with different concentrations of KPT-9274 (f) or ispinesib (g). After four days (HAP1) or six days (KMS-28BM) of treatment with compound at the indicated concentrations, cell viability was measured by MTS assay. Data were normalized to untreated cells and represent mean ±SD of two or three separate experiments performed in triplicate. IC50 values were compared with control using an extra sum-of-squares F-test. h Representative images of fluorescence microscopy imaging of subcellular ASB8 localization. HAP1 cells with a stably integrated FLAG-ASB8 or a non-coding stuffer sequence were treated overnight with DMSO or 200 nM selinexor. Cells were fixed and stained with a primary anti-FLAG antibody. Nuclei were stained with DAPI. Figure 11. Co-immunoprecipitation of XPO1 with ASB8. HEK293T cells were transiently transfected with XPOL together with either FLAG-ASB8 or KPNA3-FLAG (control) plasmids. After 24 hours, selinexor was added at the indicated concentrations and cells were incubated for an additional 15 minutes. […]

T1 sequence (O14980 whole entry): as the sequence (O14980 whole entry) above
T2 sequence (O14980 whole entry C528S): as the sequence (O14980 whole entry) above, with C528S counted along it

With `CC(C)C[C@H](NC(=O)[C@H](Cc1ccccc1)NC(=O)c1cnccn1)B(O)O` [bortezomib], the “effect on selinexor-induced XPO1 degradation” value in test [1] (HAP1 control cells with safe-targeting sgRNA, co-treatment with selinexor overnight) is recorded as “prevented”.

On to `O=C(/C=C\n1cnc(-c2cc(C(F)(F)F)cc(C(F)(F)F)c2)n1)NNc1cnccn1` [selinexor], for which the pIC50 is 7.00 in test [2]; 6.70 in [3]; 6.90 in test [4]; 7.40 in test [5]; 6.85 in [6]. In addition, the 20% effect level in test [4] (IC20) was put at 40 nM. The “sensitivity (dose-response) in ASB8 knockout and overexpressing cells versus control” value in test [7] was “increased sensitivity”. The XPO1 degradation result in test [1] (HAP1 ASB8 knockout cells) was “did not observe selinexor-induced XPOL degradation to the same extent”; in test [1] (HAP1 ASB8 overexpressing cells, with and without bortezomib), “XPO1 was profoundly depleted even in the presence of bortezomib”; in test [1] (HAP1 control cells with safe-targeting sgRNA), “dose-dependent degradation of XPO1”; in test [8], “did not trigger XPO1 degradation”. In [9], the “amount of XPO1 co-immunoprecipitated with FLAG-ASB8” value is “increased the amount of immunoprecipitated XPO1”. Also, the “nuclear accumulation of ASB8” value in test [10] is “did not observe nuclear accumulation of ASB8”.

In the case of `Cc1ccc(C(=O)N(CCCN)[C@@H](c2nc3cc(Cl)ccc3c(=O)n2Cc2ccccc2)C(C)C)cc1` [ispinesib], in [7], the “sensitivity (dose-response) in ASB8 knockout and overexpressing cells versus control” value is “no difference in response”.

Turning to `Nc1ccc(/C=C/C(=O)NCc2cc3cc(-c4ccc(C(=O)N5CCC(F)(F)CC5)cc4)cc(-c4ccc(F)cc4)c3o2)cn1` [KPT-9274], the “sensitivity (dose-response) in ASB8 knockout and overexpressing cells versus control” value in test [7] was “no difference in response”.
